PMC3813303 (Biochemistry, 2013)

Biological target: T1, Acel0264 (Acidothermus cellulolyticus, UniProt A0LRH8)
T1 sequence (A0LRH8 1-356): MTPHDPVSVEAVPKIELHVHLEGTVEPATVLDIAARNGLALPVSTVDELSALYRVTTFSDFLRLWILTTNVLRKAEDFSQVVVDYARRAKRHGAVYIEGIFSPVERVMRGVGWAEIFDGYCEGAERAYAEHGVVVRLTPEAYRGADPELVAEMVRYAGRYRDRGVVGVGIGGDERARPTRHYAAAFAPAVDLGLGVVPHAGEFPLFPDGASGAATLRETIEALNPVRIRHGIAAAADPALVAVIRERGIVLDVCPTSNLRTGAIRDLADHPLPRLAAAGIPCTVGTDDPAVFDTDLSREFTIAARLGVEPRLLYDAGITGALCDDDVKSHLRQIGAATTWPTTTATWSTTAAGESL
Test: absorbance decrease at […] nm
Type: biochemical
Settings: read-out: Acel0264 / Km; pH 7.5, 30 °C

Q: Which Km does the source give for `CCNC(=O)[C@H]1O[C@@H](n2cnc3c(N)ncnc32)[C@H](O)[C@@H]1O` [NECA, 1-(6-Amino-9H-purin-9-yl)-1-deoxy-N-ethyl-β-D-ribofuranuronamide] here?
A: 61 µM
